Measurements reported in article PMC9510126, “Hydrophobicity is a key determinant in the activity of arginine-rich cell penetrating peptides” (Scientific Reports, 2022).
Entries after “also recorded” stand apart in the source; their conditions may differ. Ends that are not written are not given here.

Assays:
[1] = Zeta potential of BMP LUVs in contact with peptides; format: binding; settings: 0.33 µM peptide, 50 µM lipid (P:L 1:150), PBS pH 5.5, 25 °C, triplicate
Procedure: The interaction partners of CPPs that may mediate direct plasma membrane translocation remain undefined. It is therefore unclear which liposome system can be used to probe this activity. […] This permeabilization is consistent with a leaky fusion process, where peptide-induced contact between liposomes is required for leakage. In order to assess whether similar processes are involved with peptides of the d(X)TAT series, LUVs were loaded with calcein to probe leakage. LUVs were prepared with either 65:15:20 PC:PE:Chol or 77:19:4 BMP:PC:PE, lipid compositions consistent with plasma membrane /early endosomes (PM/EE) bilayers or late endosome (LE) bilayers, respectively[36],[37]. Peptides were added to liposomes suspensions at various peptide-to-lipid ratios, and the release of calcein was monitored by gel filtration. […] The mixtures were then added to a folded capillary zeta cell for measurement on a Zetasizer Nano-zs (Malvern). Instrument was set to hold at 25 °C and automatically determine the optimal voltage and attenuator positions for each measurement. Each sample was set to be measured three times by the instrument and the average of these measurements was used to determine the zeta potential for a single sample. This experiment was performed in triplicate for each condition.

[2] = C18 reverse phase HPLC hydrophobicity of (X)TAT and d(X)TAT peptides; format: physicochemical; settings: chromatographic, C18, 0–40% B over 20 min, 0.1% TFA (pH 2); ranking within the d(X)TAT series
Procedure: In order to assess the hydrophobicity contributed by each X group, the peptides were first analyzed by reverse phase HPLC using a C18 column, using gradients of buffer A (water/TFA 99.9:0.1) and buffer B (acetonitrile/water/TFA 89.9:10:0.1 v:v:v) (gradient of 0–40% B over 20 min). […] All d(X)TAT peptides eluted over a range of 10–35% acetonitrile. […] One caveat of this approach is that the buffer system used for peptide analysis is pH 2 (due to the presence of TFA, required to protonate residue side chains). However, pH 2 is not representative of the pH that CPPs may be exposed to when in contact with cells, either pH 7.2 outside the plasma membrane, or pH between 6.5 and 4.5 while inside acidic endosomes. In order to establish the relative hydrophobicities of d(X)TAT peptides at these pHs, we sought to use other techniques, including thin layer chromatography using C18, aluminum oxide or silica stationary phases. Unfortunately, the arginine-rich peptides could not be separated on these systems. To solve this problem, each individual X group was synthesized, using acetylated and amidated N and C-terminal positions to mimic the peptide backbone found in the d(X)TAT constructs (Fig. 1A, Figure S11). Each Ac-X-NH2 group was analyzed by HPLC and by RP18 TLC, using 40% acetonitrile and 60% PBS as mobile phase. The HPLC elutions of Ac-X-NH2 correlated with the HPLC elutions of their respective d(X)TAT counterparts (Fig. 1C). Similarly, the relative hydrophobicities of Ac-X-NH2 determined by TLC (measured as 1-Rf) at pH 4 or 8 were in good agreement with the results obtained by HPLC (Fig. 1D). […] In the case of DEAC, the protonation state of the fluorophore has, to our knowledge, not been characterized.
All rpHPLC retention times were analyzed using an Agilent HP 1200 series instrument on an analytical Phenomenex Luna Omega Polar C18 column (5 μm, 4.6 mm × 250 mm). The flow rate was 2 mL/min, and detection was at 214 nm. A binary solvent system was used comprising 99.9% H2O/0.1% TFA (solvent A) and 90% Acetonitrile/9.9% H2O/0.1% TFA (solvent B). […]

MDA-MB-231 cells = experiment: Staining of endosomes with LysoTracker (puncta per cell); format: cell-based, human; settings: MDA-MB-231, 1 h with peptide (X = K(Ac), WW, FFLIP at 10, 1.5, 1.5 μM), LysoTracker Green DND-26 500 nM 5 min, biological triplicates
Procedure: Given that hydrophobicity of the d(X)TAT peptides appears to contribute to their membrane permeation activities, we next sought to establish whether this relationship could be recapitulated with membrane models, i.e. lipid bilayers. To establish which membrane system to test, we first aimed to test whether d(X)TAT peptides generally recapitulate the mechanism of cell entry previously determined with dfTAT. For this purpose, the delivery of TMR-k5 was performed in cells transfected with dominant-negative (DN) rab7(T22N), a protein that disrupts trafficking from early endosomes to late endosomes[29],[30]. For these experiments, d(WW)TAT and d(FFLIP)TAT were chosen as two “high activity/hydrophobicity” d(X)TAT representatives. […] In this case, approximately 5% of cells remained positive for TMR-k5 nuclear staining. […] To further probe the cell penetration mechanism, the number of endosomal organelles stained by Lysotracker in cells before and after delivery was quantified. The rationale behind this assay is that lysotracker accumulates in acidified organelles, typically late endosomes and lysosomes, that endosomal membrane leakage causes an increase of endosomal pH (presumably via leakage of luminal H^+ into the cytosol), and that, consequently, endosomes rendered potentially leaky by d(X)TAT peptides will not be stained by lysotracker.
For the quantification of acidic vesicles, cells were treated with LysoTracker Green DND-26 (500 nM) for 5 min. Alternatively, cells were pretreated with L-Leu-L-Leu methyl ester (LLOME; Sigma-Aldrich) incubated at 1 mM for 10 min, or bafilomycin (Sigma-Aldrich) at 1 µM for 4 h, and then stained with LysoTracker. Likewise, cells were pretreated with d(X)TAT peptides (X = K(Ac), WW, or FFLIP at 10, 1.5, and 1.5 μM) for 1 h. Cells were then washed an stained with LysoTracker immediately or after 12 h incubation in DMEM. For all conditions, fluorescence microscopy images were acquired using the 100× objective on an Olympus IX-81 microscope. ImageJ was used to calculate the number of LysoTracker-stained puncta per cell, as well as the area of each individual puncta. This analysis was performed for 50 cells imaged for each condition and reproduced in biological triplicates.

For “d(K(Ac))TAT: disulfide dimer of CXRKKRRQRRRG with X = lysine conjugated to an acetyl group (CK(Ac)RKKRRQRRRG-NH2; also: disulfide dimer)”, which “effect on apparent zeta potential of BMP-rich LUVs” value [1] is on record?
The value was “largest effect”.

And the “relative hydrophobicity of X group by C18 HPLC” value [2]?
The value was “least hydrophobic; also recorded: lowest peptide on the hydrophobicity scale”.

What about the “lysotracker stained endosomes (puncta per cell) immediately after incubation” value (MDA-MB-231 cells) of the same substance?
The value was “did not affect lysotracker staining”.
